Patent US20230257393A1, “MACROMOLECULE-SUPPORTED THIENOAZEPINE COMPOUNDS, AND USES THEREOF” (BOLT BIOTHERAPEUTICS, INC., priority 2020, published 2023)

Each compound was assayed against T1, human TLR8 (Homo sapiens, UniProt Q9NR97) (assay: HEK Reporter Assay, HEK293 NFKB reporter cells expressing human TLR8). Conditions: Table 1a, read-out: HEK293 hTLR8 EC50.
T1 construct: host or cells: HEK293 reporter cells
T1 sequence (Q9NR97 27-1041): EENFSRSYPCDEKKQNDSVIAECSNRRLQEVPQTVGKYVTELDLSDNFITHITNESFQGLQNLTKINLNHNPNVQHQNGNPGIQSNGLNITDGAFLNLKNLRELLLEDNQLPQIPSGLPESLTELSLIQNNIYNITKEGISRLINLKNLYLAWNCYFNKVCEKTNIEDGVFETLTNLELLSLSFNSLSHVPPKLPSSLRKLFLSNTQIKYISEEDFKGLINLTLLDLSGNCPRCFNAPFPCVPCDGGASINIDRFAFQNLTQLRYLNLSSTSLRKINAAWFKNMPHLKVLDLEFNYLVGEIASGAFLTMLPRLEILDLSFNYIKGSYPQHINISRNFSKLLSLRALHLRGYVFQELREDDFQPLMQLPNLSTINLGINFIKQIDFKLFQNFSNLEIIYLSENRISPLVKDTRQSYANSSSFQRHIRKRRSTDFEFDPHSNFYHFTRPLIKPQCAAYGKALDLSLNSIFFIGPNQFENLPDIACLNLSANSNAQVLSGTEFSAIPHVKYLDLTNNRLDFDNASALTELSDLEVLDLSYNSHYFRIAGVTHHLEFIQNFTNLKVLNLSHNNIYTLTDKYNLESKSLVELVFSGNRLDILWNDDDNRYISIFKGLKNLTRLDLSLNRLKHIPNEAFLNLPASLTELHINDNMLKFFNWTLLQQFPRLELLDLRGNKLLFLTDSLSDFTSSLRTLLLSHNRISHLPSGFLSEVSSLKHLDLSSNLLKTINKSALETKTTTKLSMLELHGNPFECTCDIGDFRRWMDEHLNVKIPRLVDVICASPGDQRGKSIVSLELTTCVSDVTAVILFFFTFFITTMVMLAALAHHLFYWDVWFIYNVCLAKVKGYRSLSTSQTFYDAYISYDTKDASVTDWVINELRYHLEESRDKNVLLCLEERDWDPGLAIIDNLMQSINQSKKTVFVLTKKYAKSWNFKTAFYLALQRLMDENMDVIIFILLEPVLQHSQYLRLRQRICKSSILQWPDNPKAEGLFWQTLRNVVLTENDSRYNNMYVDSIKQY
Type: cell-based
Procedure: (§1) Each compound was synthesized, purified, and characterized by mass spectrometry and shown to have the mass indicated. Additional experimental procedures are found in the Examples. Activity against HEK293 NFKB reporter cells expressing human TLR7 or human TLR8 was measured according to Example 202.
(§2) HEK293 reporter cells expressing human TLR7 or human TLR8 were purchased from Invivogen and vendor protocols were followed for cellular propagation and experimentation. Briefly, cells were grown to 80-85% confluence at 5% CO2 in DMEM supplemented with 10% FBS, Zeocin, and Blasticidin. Cells were then seeded in 96-well flat plates at 4×10^4 cells/well with substrate containing HEK detection medium and immunostimulatory molecules. Activity was measured using a plate reader at 620-655 nm wavelength.

EC50 [µM] | Compound
> 9 | CCCN(CCC)C(=O)C1=Cc2sc(Br)cc2N=C(N)C1 [TAZ-1, 5-amino-2-bromo-N,N-dipropyl-6H-thieno[3,2-b]azepine-7-carboxamide]
> 9 | CCCN(CC#CCNC(=O)OC(C)(C)C)C(=O)C1=Cc2sc(Br)cc2N=C(N)C1 [TAZ-10, tert-butyl N-[4-[(5-amino-2-bromo-6H-thieno[3,2-b]azepine-7-carbonyl)-propyl-amino]but-2-ynyl]carbamate]

Same assay, conditions: Table 1c, read-out: HEK293 hTLR8 EC50

EC50 [µM] | Compound
≥ 9 | CCCN(C[C@H]1CC[C@@H](CNC(=O)OC(C)(C)C)CC1)C(=O)C1=Cc2sccc2N=C(N)C1 [TAZ-119]
≥ 9 | CCCN(C(=O)C1=Cc2sc(CCCCCNC(=O)OC(C)(C)C)cc2N=C(N)C1)C1CC1 [TAZ-123]
≥ 9 | CCCN(CC1CC1)C(=O)C1=Cc2sc(CCCCCNC(=O)OC(C)(C)C)cc2N=C(N)C1 [TAZ-125]
≥ 9 | CCCN(CCCNC(=O)CC(C)(C)C)C(=O)C1=Cc2sc(CN3CCNCC3)cc2N=C(N)C1 [TAZ-139]
≥ 9 | CCCN(CCCNC(=O)C(C)(C)C)C(=O)C1=Cc2sc(CCCCCN)cc2N=C(N)C1 [TAZ-142]
≥ 9 | CCCN(Cc1ccc(CN(C)C)cc1C(F)(F)F)C(=O)C1=Cc2sc(CCCCCNC(=O)OC(C)(C)C)cc2N=C(N)C1 [TAZ-143]
≥ 9 | CCCN(CCCNC(=O)OC1CCC1)C(=O)C1=Cc2sc(CN3CCNCC3)cc2N=C(N)C1 [TAZ-169]
≥ 9 | CCCN(OCC)C(=O)C1=Cc2sc(C#CC3CCN(C(=O)OC(C)(C)C)CC3)cc2N=C(N)C1 [TAZ-173]
≥ 9 | CCCN(CCCNC(=O)OC1CCC1)C(=O)C1=Cc2sc(CN3CCN(c4ccc(C(=O)OC)cc4)CC3)cc2N=C(N)C1 [TAZ-180]
≥ 9 | CCCN(CCCNC(=O)OC1CCC1)C(=O)C1=Cc2sc(CC3CNC3)cc2N=C(N)C1 [TAZ-181]
≥ 9 | CCCN(CCCNC(=O)OC1CCC1)C(=O)C1=Cc2sc(CC3CCNCC3)cc2N=C(N)C1 [TAZ-185, cyclobutyl N-[3-[[5-amino-2-(4-piperidylmethyl)-6H-thieno[3,2-b]azepine-7-carbonyl]-propyl-amino]propyl]carbamate]
≥ 9 | CCCN(CCCNC(=O)OC1CCC1)C(=O)C1=Cc2sc(CCC3CNC3)cc2N=C(N)C1 [TAZ-197]
2.25 | CCCN(CCCNC(=O)OC1CCC1)C(=O)C1=Cc2sc(CNC(=O)Cc3ccccc3)cc2N=C(N)C1 [TAZ-204]

Each compound was assayed against T2, human TLR7 (Homo sapiens, UniProt Q9NYK1) (assay: HEK Reporter Assay, HEK293 NFKB reporter cells expressing human TLR7). Conditions: Table 1a, read-out: HEK293 hTLR7 EC50.
T2 construct: host or cells: HEK293 reporter cells
T2 sequence (Q9NYK1 27-1049): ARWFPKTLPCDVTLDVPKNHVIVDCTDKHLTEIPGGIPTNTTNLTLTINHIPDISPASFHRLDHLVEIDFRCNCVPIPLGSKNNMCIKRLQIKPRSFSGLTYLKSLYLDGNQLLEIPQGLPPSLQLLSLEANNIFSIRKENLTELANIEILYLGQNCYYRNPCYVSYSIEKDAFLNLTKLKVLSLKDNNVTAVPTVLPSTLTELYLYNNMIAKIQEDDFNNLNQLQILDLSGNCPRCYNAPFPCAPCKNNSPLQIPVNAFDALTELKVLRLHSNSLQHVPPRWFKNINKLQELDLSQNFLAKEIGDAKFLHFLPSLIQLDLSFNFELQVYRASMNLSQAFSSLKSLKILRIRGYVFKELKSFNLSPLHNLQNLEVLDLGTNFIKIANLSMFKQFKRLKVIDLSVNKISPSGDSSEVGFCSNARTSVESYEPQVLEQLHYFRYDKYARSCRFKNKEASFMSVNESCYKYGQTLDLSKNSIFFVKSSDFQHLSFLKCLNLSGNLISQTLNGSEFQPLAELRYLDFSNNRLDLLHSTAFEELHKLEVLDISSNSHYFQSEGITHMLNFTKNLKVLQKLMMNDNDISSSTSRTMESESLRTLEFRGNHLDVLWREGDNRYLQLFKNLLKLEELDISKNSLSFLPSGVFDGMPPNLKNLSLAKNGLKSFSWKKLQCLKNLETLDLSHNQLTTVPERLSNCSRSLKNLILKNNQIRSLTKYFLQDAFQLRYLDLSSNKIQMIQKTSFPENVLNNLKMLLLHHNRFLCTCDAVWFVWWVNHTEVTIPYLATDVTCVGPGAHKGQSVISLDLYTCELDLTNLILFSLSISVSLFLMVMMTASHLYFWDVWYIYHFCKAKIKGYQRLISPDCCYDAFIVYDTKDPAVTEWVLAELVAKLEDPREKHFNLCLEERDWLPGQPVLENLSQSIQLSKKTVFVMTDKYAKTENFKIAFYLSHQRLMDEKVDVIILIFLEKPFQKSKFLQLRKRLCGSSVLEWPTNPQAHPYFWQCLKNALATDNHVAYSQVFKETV
Type: cell-based
Procedure: as §1, §2

EC50 [µM] | Compound
> 9 | CCCN(CCC)C(=O)C1=Cc2sc(Br)cc2N=C(N)C1 [TAZ-1, 5-amino-2-bromo-N,N-dipropyl-6H-thieno[3,2-b]azepine-7-carboxamide]
> 9 | CCCN(CCC)C(=O)C1=Cc2sccc2N=C(N)C1 [TAZ-2, 5-amino-N,N-dipropyl-6H-thieno[3,2-b]azepine-7-carboxamide]
> 9 | CCCN(CCC)C(=O)C1=Cc2sc(CCCCCN)cc2N=C(N)C1 [TAZ-14, 5-amino-2-(5-aminopentyl)-N,N-dipropyl-6H-thieno [3,2-b]azepine-7-carboxamide]
> 9 | CCCN(CC#CCNC(=O)OC(C)(C)C)C(=O)C1=Cc2sccc2N=C(N)C1 [TAZ-16, tert-butyl N-[4-[(5-amino-6H-thieno[3,2-b]azepine-7-carbonyl)-propyl-amino]but-2-ynyl]carbamate]
> 9 | CCCN(CC#CCN)C(=O)C1=Cc2sccc2N=C(N)C1 [TAZ-17, 5-amino-N-(4-aminobut-2-ynyl)-N-propyl-6H-thieno[3,2-b]azepine-7-carboxamide]
> 9 | CCCN(Cc1ccc(CN)cc1)C(=O)C1=Cc2sccc2N=C(N)C1 [TAZ-30, 5-amino-N-(4-(aminomethyl)benzyl)-N-propyl-6H-thieno[3,2-b]azepine-7-carboxamide]

Same assay, conditions: Table 1b, read-out: HEK293 hTLR7 EC50

EC50 [µM] | Compound
> 9 | CCCN(Cc1ccc(CNC)cc1)C(=O)C1=Cc2sc(CCCCCN(C)C)cc2N=C(N)C1 [TAZ-65, 5-amino-2-[5-(dimethylamino)pentyl]-N-[[4-(methylaminomethyl)phenyl]methyl]-N-propyl-6H-thieno[3,2-b]azepine-7-carboxamide]
> 9 | CCCN(C[C@H]1C[C@H](CN)C1)C(=O)C1=Cc2sccc2N=C(N)C1 [TAZ-69]
> 9 | CCCN(CCC)C(=O)C1=Cc2sc(COCCN)cc2N=C(N)C1 [TAZ-81]
> 9 | CCCN(CCC)C(=O)C1=Cc2sc(CNC(=O)CN)cc2N=C(N)C1 [TAZ-92]

Same assay, conditions: Table 1c, read-out: HEK293 hTLR7 EC50

EC50 [µM] | Compound
≥ 9 | CCCN(C[C@H]1CC[C@@H](CN)CC1)C(=O)C1=Cc2sccc2N=C(N)C1 [TAZ-118]
≥ 9 | CCCN(Cc1cnc(CN(C)C)c(C(F)(F)F)c1)C(=O)C1=Cc2sc(CCCCCN)cc2N=C(N)C1 [TAZ-127]
≥ 9 | CCCN(CCCNC(=O)OC1CCC1)C(=O)C1=Cc2sc(C#CC3CCN(C(=O)OC(C)(C)C)CC3)cc2N=C(N)C1 [TAZ-165]
≥ 9 | CCCN(CCC)C(=O)C1=Cc2scc(C)c2N=C(N)C1 [TAZ-168]
≥ 9 | CCCN(OCC)C(=O)C1=Cc2sc(CC3CCN(C(=O)OC(C)(C)C)CC3)cc2N=C(N)C1 [TAZ-179]
≥ 9 | CCCN(OCC)C(=O)C1=Cc2sc(C#CC3CN(C(=O)OC(C)(C)C)C3)cc2N=C(N)C1 [TAZ-187]
≥ 9 | CCCN(OCC)C(=O)C1=Cc2sc(C#CC3(O)CN(C(=O)OC(C)(C)C)C3)cc2N=C(N)C1 [TAZ-188]
≥ 9 | CCCN(OCC)C(=O)C1=Cc2sc(CN3Cc4ccc(NC(=O)CCN)cc4C3)cc2N=C(N)C1 [TAZ-201]
≥ 9 | CCCN(OCC)C(=O)C1=Cc2sc(CN3CC(CN)C3)cc2N=C(N)C1 [TAZ-211]
≥ 9 | CCCN(OCC)C(=O)C1=Cc2sc(CN3CCN(c4cccc(C(=O)OC(C)(C)C)c4)CC3)cc2N=C(N)C1 [TAZ-216]
≥ 9 | CCCN(OCC)C(=O)C1=Cc2sc(CN3C[C@@H]4CN(C(=O)OC(C)(C)C)C[C@@H]4C3)cc2N=C(N)C1 [TAZ-242]
≥ 9 | CCCN(OCC)C(=O)C1=Cc2sc(CN3CCC(N)CC3)cc2N=C(N)C1 [TAZ-243]
≥ 9 | CCCN(OCC)C(=O)C1=Cc2sc(CN3CC4(CCN4Cc4ccccc4)C3)cc2N=C(N)C1 [TAZ-246]
≥ 9 | CCCN(OCC)C(=O)C1=Cc2sc(CN3C[C@H]4CNC[C@H]4C3)cc2N=C(N)C1 [TAZ-247]
≥ 9 | CCCN(OCC)C(=O)C1=Cc2sc(CN3C[C@H]4CN(C(=O)OC(C)(C)C)C[C@@H]4C3)cc2N=C(N)C1 [TAZ-248]
≥ 9 | CCCN(Cc1ncco1)C(=O)C1=Cc2sc(CC3CNC3)cc2N=C(N)C1 [TAZ-256]
